From article PMC9679999, “A Useful Guide to Lectin Binding: Machine-Learning Directed Annotation of 57 Unique Lectin Specificities” (ACS Chemical Biology, 2022)

Experiments:
Format in all cases: binding
[1] = biological target: T1, Cholera Toxin B Subunit (CTB) (Vibrio cholerae, UniProt P01556)
T1 construct: gene ctxB

[2] = biological target: T2, Hippeastrum hybrid Lectin (HHA, HHL) (Hippeastrum hybrid cultivar, UniProt Z9FHC8O5N0); assay: CFG glycan microarray v5, biotinylated lectin, Cy5-streptavidin
T2 construct: commercial lectin (EY and Vector), biotinylated
T2 sequence (Z9FHC8O5N0 1-108): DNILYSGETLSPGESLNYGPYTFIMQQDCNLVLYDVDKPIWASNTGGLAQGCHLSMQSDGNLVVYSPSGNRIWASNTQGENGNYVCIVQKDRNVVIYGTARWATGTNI

[3] = biological target: Marasmius oreades agglutinin (MOA) (Marasmius oreades, UniProt Q8X123); assay: as above
[4] = biological target: T3, Psophocarpus tetragonolobus lectin-I (PTL-I/PTA-I) (Psophocarpus tetragonolobus, UniProt O24313); assay: as above
T3 construct: gene WBAI
T3 sequence (O24313 1-242): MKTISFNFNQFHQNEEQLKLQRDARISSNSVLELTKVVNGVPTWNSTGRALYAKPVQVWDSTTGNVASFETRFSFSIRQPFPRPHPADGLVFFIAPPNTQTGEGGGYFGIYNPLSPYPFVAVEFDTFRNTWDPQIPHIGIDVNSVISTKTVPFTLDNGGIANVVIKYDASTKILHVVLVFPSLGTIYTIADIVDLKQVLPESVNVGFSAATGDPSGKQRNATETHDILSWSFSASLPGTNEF

Marasmius oreades agglutinin (MOA), sequence (Q8X123 entry or part of it): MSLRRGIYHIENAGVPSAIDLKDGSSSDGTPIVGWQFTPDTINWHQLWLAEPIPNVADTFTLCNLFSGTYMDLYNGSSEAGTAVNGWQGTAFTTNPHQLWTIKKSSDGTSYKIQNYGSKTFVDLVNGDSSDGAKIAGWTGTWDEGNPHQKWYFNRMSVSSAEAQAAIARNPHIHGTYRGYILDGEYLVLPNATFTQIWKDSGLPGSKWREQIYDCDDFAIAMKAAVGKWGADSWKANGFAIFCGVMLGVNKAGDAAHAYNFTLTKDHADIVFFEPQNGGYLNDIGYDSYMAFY
T1 sequence (P01556 22-124 limits assumed): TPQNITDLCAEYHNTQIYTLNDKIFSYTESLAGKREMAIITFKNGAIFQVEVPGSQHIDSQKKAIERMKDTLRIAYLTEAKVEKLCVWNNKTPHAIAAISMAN

Structure (SMILES): CC(=O)N[C@H]1[C@H](O[C@@H]2[C@H](O[C@]3(C(=O)O)C[C@H](O)[C@@H](NC(C)=O)[C@H]([C@H](O)[C@H](O)CO)O3)[C@@H](O)[C@H](O[C@H]3[C@H](O)[C@@H](O)C(O)O[C@@H]3CO)O[C@@H]2CO)O[C@H](CO)[C@H](O)[C@@H]1O[C@@H]1O[C@H](CO)[C@H](O)[C@H](O)[C@H]1O (stereo partly shown) [GM1]
- CFG glycan microarray v5, biotinylated lectin, Cy5-streptavidin [1]: Our analysis found only two glycan binders, GM1 and fucosylated GM1

Structure (SMILES): OC[C@H]1O[C@H](OC[C@H]2OC(O)[C@@H](O)[C@@H](O[C@H]3O[C@H](CO)[C@@H](O)[C@H](O)[C@@H]3O)[C@@H]2O)[C@@H](O)[C@@H](O)[C@@H]1O (stereo partly shown) [mannose core trisaccharide]
- CFG glycan microarray v5, biotinylated lectin, Cy5-streptavidin [2]: This lectin shows the highest affinity for the mannose core trisaccharide

Structure (SMILES): C[C@@H]1O[C@@H](O[C@H]2C(O)O[C@H](CO)[C@H](O)[C@@H]2O[C@H]2O[C@H](CO)[C@H](O)[C@H](O)[C@H]2O)[C@@H](O)[C@H](O)[C@@H]1O (stereo partly shown) [B trisaccharide]
- CFG glycan microarray v5, biotinylated lectin, Cy5-streptavidin [3]: This motif lies within the B trisaccharide, which is preferentially bound by this lectin

Structure (SMILES): CC(=O)N[C@H]1[C@@H](O[C@H]2[C@@H](O)[C@@H](CO)OC(O)[C@@H]2O[C@@H]2O[C@@H](C)[C@@H](O)[C@@H](O)[C@@H]2O)O[C@H](CO)[C@H](O)[C@@H]1O (stereo partly shown) [blood group A trisaccharide]
- CFG glycan microarray v5, biotinylated lectin, Cy5-streptavidin [4]: we found blood group A trisaccharides
